# From patent US8367658B2, “Pyrazin-2-yl-pyridin-2-yl-amine and pyrazin-2-yl-pyrimidin-4-yl-amine compounds and their use” (Cancer Research Technology Limited, priority 2007, dated 2013)
# “And” between values parts separate entries of the source, which are not always exact repeats. Identical values can stand only once.
# Target: T1, CHK1 (Homo sapiens, UniProt O14757)
# T1 sequence (O14757 1-476): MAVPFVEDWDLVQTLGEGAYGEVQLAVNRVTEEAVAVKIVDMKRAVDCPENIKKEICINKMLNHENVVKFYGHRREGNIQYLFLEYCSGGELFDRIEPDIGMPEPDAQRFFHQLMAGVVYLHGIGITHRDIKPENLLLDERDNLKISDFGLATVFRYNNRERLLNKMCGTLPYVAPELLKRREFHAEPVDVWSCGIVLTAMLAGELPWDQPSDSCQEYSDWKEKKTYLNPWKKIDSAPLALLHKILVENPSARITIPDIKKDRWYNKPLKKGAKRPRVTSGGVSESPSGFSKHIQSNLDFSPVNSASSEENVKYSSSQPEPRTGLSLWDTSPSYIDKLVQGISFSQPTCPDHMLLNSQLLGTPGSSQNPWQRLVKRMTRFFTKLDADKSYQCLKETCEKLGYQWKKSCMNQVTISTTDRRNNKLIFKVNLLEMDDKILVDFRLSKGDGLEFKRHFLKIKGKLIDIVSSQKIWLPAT
# Assay: CHK1 kinase function inhibition assay (DELFIA, phosphorylation of a CDC25C peptide)
# Format: biochemical
# Settings: CHK1 1 nM, ATP 30 μM, 30 minutes at room temperature
# Description: Measurement of Inhibition of CHK1 Kinase Function
# CHK1 kinase function was measured in a DELFIA® assay in order to monitor phosphorylation of a CDC25C peptide using a specific phospho antibody.
# The reaction mixture was incubated for 30 minutes at room temperature and then stopped by the addition of buffer (125 μL) containing 40 mM EDTA, 0.05% Tween 20, 0.1% BSA in TBS (10× concentrate, Sigma). An aliquot (100 μL) of the stopped reaction mixture was transferred to a black neutravidin-coated plate (Perbio) and incubated for 1 hour on a shaker (Titertek, Flow Laboratories) at room temperature. […] The plates were washed a further four times with wash buffer before the addition of enhancement solution (100 μL/well, PerkinElmer Life Sciences).
row,Structure (SMILES),IC50
1,"N#Cc1cnc(Nc2cc(NCC3CCNCC3)c(C(=O)NCCO)cn2)cn1 [Compound Y-088, 6-(5-Cyanopyrazin-2-ylamino)-N-(2-hydroxyethyl)-4-(piperidin-4-ylmethylamino)nicotinamide]",100 to 1000 nM
2,"N#Cc1cnc(Nc2cc(NCCN)c(N)cn2)cn1 [Compound Y-003, 5-(5-Amino-4-(2-aminoethylamino)pyridin-2-ylamino)pyrazine-2-carbonitrile]",≤ 1000 nM and 660 nM and 100 to 1000 nM
3,"N#Cc1cnc(Nc2cc(NCC3CCNCC3)c(C(=O)Nc3ccccc3F)cn2)cn1 [Compound Y-093, 6-(5-Cyanopyrazin-2-ylamino)-N-(2-fluorophenyl)-4-(piperidin-4-ylmethylamino)nicotinamide]",100 to 1000 nM
4,"COC(=O)c1cnc(Nc2cnc(C#N)cn2)cc1NCC1CCCCN1 (stereo not shown) [Compound Y-073, Methyl 6-(5-cyanopyrazin-2-ylamino)-4-(piperidin-2-ylmethylamino)-nicotinate]",≤ 100 nM
5,"CN(C)CC(=O)Nc1cnc(Nc2cnc(C#N)cn2)cc1N[C@@H]1CCCNC1 [Compound Y-043, (R)—N-(6-(5-Cyanopyrazin-2-ylamino)-4-(piperidin-3-ylamino)pyridin-3-yl)-2-(dimethylamino)acetamide]",100 to 1000 nM
6,"N#Cc1cnc(Nc2cc(NCC3CCNCC3)c(NC(=O)CCN3CCCCC3)cn2)cn1 [Compound Y-011, N-(6-(5-Cyanopyrazin-2-ylamino)-4-(piperidin-4-ylmethylamino)pyridin-3-yl)-3-(piperidin-1-yl)propanamide]",1000 to 10000 nM
7,"COC(=O)c1cnc(Nc2cnc(C#N)cn2)cc1N[C@H]1CCN[C@H](C(=O)Nc2ccccc2)C1 [Compound Y-028, Methyl 6-(5-cyanopyrazin-2-ylamino)-4-((2S,4S)-2-(phenylcarbamoyl)piperidin-4-ylamino)nicotinate]",≤ 1000 nM and 100 to 1000 nM
8,"CN1C2CCC1CC(Nc1cc(Nc3cnc(C#N)cn3)ncc1N)C2 (stereo not shown) [Compound Y-006, 5-(5-Amino-4-(8-methyl-8-aza-bicyclo[3.2.1]octan-3-ylamino)-pyridin-2-ylamino)pyrazine-2-carbonitrile]",1000 to 10000 nM
9,"COC(=O)c1cnc(Nc2cnc(C#N)cn2)cc1NC1CCCNCC1 (stereo not shown) [Compound Y-076, Methyl 4-(azepan-4-ylamino)-6-(5-cyanopyrazin-2-ylamino)nicotinate]",≤ 100 nM
10,"N#Cc1cnc(Nc2cc(OCC3CCOC3)c(NC(=O)CCC3CCNCC3)cn2)cn1 (stereo not shown) [Compound Y-068, N-(6-(5-Cyanopyrazin-2-ylamino)-4-((tetrahydrofuran-3-yl)methoxy)pyridin-3-yl)-3-(piperidin-4-yl)propanamide]",1000 to 10000 nM
11,"CN1C2CCC1CC(Nc1cc(Nc3cnc(C#N)cn3)ncn1)C2 [Compound Z-027, 5-(6-((1R,3s,5S)-8-Methyl-8-azabicyclo[3.2.1]octan-3-ylamino)pyrimidin-4-ylamino)pyrazine-2-carbonitrile]",≤ 100 nM
12,"N#Cc1cnc(Nc2cc(NCC3CCCNC3)c(-n3ccc(CN4CCOCC4)c3)cn2)cn1 (stereo not shown) [Compound Y-062, 5-(5-(3-(Morpholinomethyl)-1H-pyrrol-1-yl)-4-(piperidin-3-ylmethylamino)pyridin-2-ylamino)pyrazine-2-carbonitrile]",≤ 100 nM
13,"COc1cccc(NC(=O)c2cnc(Nc3cnc(C#N)cn3)cc2NCC2CCNCC2)c1 [Compound Y-096, 6-(5-Cyanopyrazin-2-ylamino)-N-(3-methoxyphenyl)-4-(piperidin-4-ylmethylamino)nicotinamide]",≤ 100 nM
14,"N#Cc1cnc(Nc2cc(NCCC[C@H](N)C(=O)Nc3ccccc3)c(N)cn2)cn1 [Compound Y-052, (S)-2-Amino-5-(5-amino-2-(5-cyanopyrazin-2-ylamino)pyridin-4-ylamino)-N-phenylpentanamide]",1000 to 10000 nM
15,"N#Cc1cnc(Nc2cc(NC3CCCCC3)c(N)cn2)cn1 [Compound Y-045, 5-(5-Amino-4-(cyclohexylamino)pyridin-2-ylamino)pyrazine-2-carbonitrile]",1000 to 10000 nM
16,"CCNC(=O)c1cnc(Nc2cnc(C#N)cn2)cc1NC1CC2CCC(C1)N2C (stereo not shown) [Compound Y-034, 6-(5-Cyanopyrazin-2-ylamino)-N-ethyl-4-(8-methyl-8-azabicyclo[3.2.1]octan-3-ylamino)nicotinamide]",≤ 1000 nM and 100 to 1000 nM

# Other lines, results leading:
row,IC50,Structure (SMILES)
1,≤ 100 nM,"N#Cc1cnc(Nc2cc(NCC3CCNCC3)c(C(=O)Nc3cccc(N4CCOCC4)c3)cn2)cn1 [Compound Y-099, 6-(5-Cyanopyrazin-2-ylamino)-N-(3-morpholinophenyl)-4-(piperidin-4-ylmethylamino)nicotinamide]"
2,≤ 100 nM,"CN1CCC(Nc2cc(Nc3cnc(C#N)cn3)ncc2Br)CC1 [Compound Y-110, 5-(5-Bromo-4-(1-methylpiperidin-4-ylamino)pyridin-2-ylamino)pyrazine-2-carbonitrile]"
3,≤ 1000 nM and 100 to 1000 nM,"N#Cc1cnc(Nc2cc(NCC[C@H](N)C(=O)Nc3ccccc3)ncn2)cn1 [Compound Z-026, (S)-2-Amino-4-(6-(5-cyanopyrazin-2-ylamino)pyrimidin-4-ylamino)-N-phenylbutanamide]"
4,100 to 1000 nM,"COCCCOc1ccc(-c2cnc(Nc3cnc(C#N)cn3)cc2NCC2CCNCC2)cc1 [Compound Y-133, 5-(5-(4-(3-Methoxypropoxy)phenyl)-4-(piperidin-4-ylmethylamino)pyridin-2-ylamino)pyrazine-2-carbonitrile]"
5,1000 to 10000 nM,"N#Cc1cnc(Nc2cc(N[C@H]3CCNC3)ncn2)cn1 [Compound Z-024, (S)-5-(6-(Pyrrolidin-3-ylamino)pyrimidin-4-ylamino)pyrazine-2-carbonitrile]"
6,≤ 100 nM,"COCCOc1ccc(-c2cnc(Nc3cnc(C#N)cn3)cc2NC[C@H]2CNCCO2)cc1 [Compound Y-157, (R)-5-(5-(4-(2-Methoxyethoxy)phenyl)-4-(morpholin-2-ylmethylamino)pyridin-2-ylamino)pyrazine-2-carbonitrile]"
7,1000 to 10000 nM,"CN1CCC(Nc2cc(Nc3cnc(C#N)cn3)ncc2C(=O)O)CC1 [Compound Y-104, 6-(5-Cyanopyrazin-2-ylamino)-4-(1-methylpiperidin-4-ylamino)nicotinic acid]"
8,1000 to 10000 nM,"N#Cc1cnc(Nc2cc(N[C@H]3CC[C@H](O)CC3)ncn2)cn1 [Compound Z-038, 5-(6-((1r,4r)-4-Hydroxycyclohexylamino)pyrimidin-4-ylamino)pyrazine-2-carbonitrile]"
9,≤ 100 nM,"COCc1ccc(-c2cnc(Nc3cnc(C#N)cn3)cc2NC[C@@H]2CNCCO2)cc1 [Compound Y-148, (S)-5-(5-(4-(Methoxymethyl)phenyl)-4-(morpholin-2-ylmethylamino)pyridin-2-ylamino)pyrazine-2-carbonitrile]"
10,1000 to 10000 nM,"N#Cc1cnc(Nc2cc(N3CCOC(CN)C3)ncn2)cn1 (stereo not shown) [Compound Z-014, 5-(6-(2-(Aminomethyl)morpholino)pyrimidin-4-ylamino)pyrazine-2-carbonitrile]"
11,≤ 100 nM,"COCCCc1cnc(Nc2cnc(C#N)cn2)cc1NC[C@H]1CNCCO1 [Compound Y-159, (R)-5-(5-(3-Methoxypropyl)-4-(morpholin-2-ylmethylamino)pyridin-2-ylamino)pyrazine-2-carbonitrile]"
12,100 to 1000 nM,"N#Cc1cnc(Nc2cc(NCC3CCNCC3)c(CCCCO)cn2)cn1 [Compound Y-142, 5-(5-(4-hydroxybutyl)-4-(piperidin-4-ylmethylamino)pyridin-2-ylamino)pyrazine-2-carbonitrile]"
